Measurements: patent US20130171091A1, “Nanocell Drug Delivery System” (Massachusetts Institute of Technology, priority 2004, published 2013)

Experiments:
Type in all cases: cell-based
[1] = system: B16/F10 melanoma cells and human umbilical vein endothelial cells; experiment: HGF/SF-induced response in co-culture assay on matrigel
From the text: (§1) Protocol: For setting up the system, human umbilical vein endothelial cells, pooled from three donors, were purchased from Cambrex, and used between passages 3-6. […] For the tumor component, we used B16/F10 melanoma cells as the model cell line, which were stably transfected to express green fluorescent protein. Plasmid expressing enhanced green fluorescent protein (pEGFP-C2, Clontech) was linearized and lipofected (Lipofectamine 2000, Invitrogen) into B16-F10 cells. […] The GFP-B16/F10 cells were regularly cultured in DMEM supplemented with 5% FBS. Sterile glass coverslips (Corning) were coated with matrigel (extracellular matrix extracted from murine Englebreth-Holms sarcoma, diluted 1:3 in phosphate buffer saline; Becton Dickinson) or collagen (type I from rat's tail, Becton Dickinson). Synchronized human umbilical vein endothelial cells were trypsinised and plated on the coverslips at a density of 2×10^4 cells per well. The cells were allowed to adhere for 24 hours in endothelial basal media supplemented with 20% fetal bovine serum. At this time point, the media was replaced with EBM supplemented with 1% serum, and green fluorescent protein-expressing B16/F10 cells were added to the system at a density of 5×10^3 cells per well. The co-culture was allowed to incubate overnight, following which different treatments were added to the media. At 24 hours post-treatment, the cells were fixed in paraformaldehyde (4% on ice, for 20 min), and stained with propidium iodide. The coverslips were mounted with antifade, and analysed with a LSM510 Zeiss confocal microscope. […] Data were expressed as the ratio of each component to the total area covered by cells.

[2] = system: B16/F10 melanoma cells and human umbilical vein endothelial cells; experiment: VEGF-induced response in co-culture assay on matrigel; design: VEGF-induced endothelial network: dose or concentration left out as unconfirmed; settings: for effect on tumor cells: Doxorubicin 10-50 μM
From the text: as §1

[3] = system: B16/F10 melanoma cells and human umbilical vein endothelial cells; experiment: VEGF-induced response in co-culture assay plated on collagen
From the text: as §1, with “At this time point, the media was replaced with EBM supplemented with 1% serum, and green fluorescent protein-expressing B16/F10 cells were added to the system at a density of 5×10^3 cells per well. The co-culture was allowed to incubate overnight, following which different treatments were added to the media. At 24 hours post-treatment, the cells were fixed in paraformaldehyde (4% on ice, for 20 min), and stained with propidium iodide.” left out

[4] = system: B16/F10 melanoma cells and human umbilical vein endothelial cells; experiment: HGF-induced response in co-culture assay plated on collagen
From the text: as §1, with “At this time point, the media was replaced with EBM supplemented with 1% serum, and green fluorescent protein-expressing B16/F10 cells were added to the system at a density of 5×10^3 cells per well. The co-culture was allowed to incubate overnight, following which different treatments were added to the media. At 24 hours post-treatment, the cells were fixed in paraformaldehyde (4% on ice, for 20 min), and stained with propidium iodide.” left out

[5] = system: B16/F10 melanoma cells and human umbilical vein endothelial cells; experiment: Effect of VEGF and HGF on tumor angiogenesis in vitro, co-culture on matrigel; settings: growth factor added to co-culture on matrigel
Procedure: Protocol: For setting up the system, human umbilical vein endothelial cells, pooled from three donors, were purchased from Cambrex, and used between passages 3-6. The cells were grown in endothelial basal medium supplemented with 20% fetal bovine serum (FBS) and bulletkit-2 (Sengupta et al. Cancer Res. 63 (23):8351-59, Dec. 1, 2003). For the tumor component, we used B16/F10 melanoma cells as the model cell line, which were stably transfected to express green fluorescent protein. Plasmid expressing enhanced green fluorescent protein (pEGFP-C2, Clontech) was linearized and lipofected (Lipofectamine 2000, Invitrogen) into B16-F10 cells. The stably integrated clones of B16-F10 cells were selected by 800 μg/ml G418. The green fluorescence of the G418 resistant clones was further confirmed by Flow Cytometry and epifluorescence microscopy. The GFP-B16/F10 cells were regularly cultured in DMEM supplemented with 5% FBS. […] The coverslips were mounted with antifade, and analysed with a LSM510 Zeiss confocal microscope. […] Quantification of the area covered by the endothelial cells or GFP-BL6/F10 cells was carried out using a planimetric point-count method using a 224-intersection point square reticulum. Data were expressed as the ratio of each component to the total area covered by cells. […]

Row | Compound | HGF/SF-induced response (endothelial network) [1] | VEGF-induced angiogenesis / vascular network [2] | effect on tumor cells [2] | vascular network [5] | also measured
1 | Clc1ccc(Nc2nnc(Cc3ccncc3)c3ccccc23)cc1 [PTK787] | no effect on the HGF/SF-induced response | blocked |  |  | 
2 | O=C1CCC(N2C(=O)c3ccccc3C2=O)C(=O)N1 (centres unmarked) [thalidomide] | failed to inhibit the HGF-induced effect | collapse of the VEGF-induced vascular network | without affecting the tumor cells |  | angiogenic effects of VEGF [3]: inhibited the angiogenic effects of VEGF; endothelial cell loss ([4]; HGF/SF): induced endothelial cell loss
3 | VEGF |  |  |  | significant increase in the vascular network | 
4 | HGF/SF: growth factor added to the co-culture |  |  |  | significant increase in the vascular network | 
5 | COc1cccc2c1C(=O)c1c(O)c3c(c(O)c1C2=O)C[C@@](O)(C(=O)CO)C[C@@H]3O[C@H]1C[C@H](N)[C@H](O)[C@H](C)O1 [Doxorubicin] |  |  | selective ablation of the tumor cells in a concentration-dependent manner |  | tumor cell death ([3]; VEGF-treated co-culture): induced tumor cell death; tumor cell death [1]: selective induction of tumor cell death; tumor cell death ([4]; HGF/SF-treated co-culture): induced tumor cell death; VEGF-induced endothelial network ([2]; highest concentration used): no effect on the VEGF-induced endothelial network
